For one assay, the system named is HeLa (cervix). In words: Antiproliferative SBR assay (NCI protocol), HeLa. In kind it is cell-based, human. The following applies: Homo sapiens, HeLa; 48 h exposure, n = 3, mean ± SD. The source says: (§1) The latter two represent multidrug-resistant cell lines.
In the next assay the test system is HBL-100 (breast). In words: Antiproliferative SBR assay (NCI protocol), HBL-100. In kind it is cell-based, human. The settings on record: Homo sapiens, HBL-100; 48 h exposure, n = 3, mean ± SD.
Text: as §1

The subject of assay [1] is A549, HBL-100, HeLa, SW1573, T-47D, WiDr. The assay is described as follows: Antiproliferative SBR assay, panel of six tumor cell lines (summary statements). Type of assay: cell-based. The settings on record: Homo sapiens.
Text: as §1

The subject of assay [2] is SW1573 (non-small cell lung).
Protocol: The potential antiproliferative activity of sulfonamides synthesized in this study was evaluated in vitro using the SBR assay, following the US NCI protocol. A panel of six tumor cell lines was employed: A549 (non-small cell lung), HBL-100 (breast), HeLa (cervix), SW1573 (non-small cell lung), T-47D (breast), and WiDr (colon). The latter two represent multidrug-resistant cell lines.
Cells were maintained in culture in 60 mm cell culture dishes in growth medium (10 mL) and passaged twice weekly.
The antiproliferative activity of compounds was tested using our implementation of the protocol of the National Cancer Institute (NCI) of the USA. The following seeding densities (cells per well) were used: 2500 (A549, HBL-100, HeLa, and SW1573) and 5000 (T-47D and WiDr). Stock solutions of inhibitors (40 mM) were prepared in pure DMSO (400 times the maximum test concentration).
Another assay deals with WiDr (colon). In words: Antiproliferative SBR assay (NCI protocol), WiDr. Type of assay: cell-based, human. The following applies: Homo sapiens, WiDr; 48 h exposure, n = 3, mean ± SD; multidrug-resistant line.
Text: as §1

For assay [3], the system named is A549 (non-small cell lung). The assay is described as follows: Antiproliferative SBR assay (NCI protocol), A549. The settings on record: Homo sapiens, A549; 48 h exposure, n = 3, mean ± SD. Type of assay: cell-based, human.
Text: as §1

The test system of another assay is T-47D (breast). The assay is described as follows: Antiproliferative SBR assay (NCI protocol), T-47D. In kind it is cell-based, human. The settings on record: Homo sapiens, T47D; 48 h exposure, n = 3, mean ± SD; multidrug-resistant line.
Text: as §1

The next assay relates to SW1573 cells. In words: Label-free continuous live cell imaging (holotomographic 3D microscopy). In kind it is cell-based, human. The following applies: 20 μM, 20 h. Here is the method:
Live imaging allows researchers to observe progressive cytostatic effects or cell death of treated cells, enabling the identification of several apoptotic hallmarks. In order to characterize the phenotypic effects of the compounds 4a and 5b on cancer cells, the evolution of the culture was monitored every 3 min using label-free holotomographic 3D microscopy. SW1573 cells were exposed to 4a and 5b at a concentration of 20 μM for 20 h (Supplementary Material, videos S1–S3). Untreated SW1573 cells (control) moved freely and divided throughout the experimental time frame.
The CX-A imaging platform microscope (Nanolive SA, Lausanne, Switzerland) was used to measure refractive indices, creating a holotomographic 3D image of the cells. SW1573 cells were seeded onto 35 mm cell culture imaging dishes (IBIDI GmbH, Gräfelfing, Germany) at a density of 50.000 cells/well. On the next day, treated cells were exposed to the test compounds right before the acquisition of the images. Image data were transferred to FIJI software v2.9.0 (NIH, USA) for image analysis. EVE software v2.2.1.2162 (Nanolive S.A., Tolochenaz, Switzerland)) was used for the analysis of the refractive indices and calculation of the phenotypic parameters.

For a further assay, the target named is human CA II (Homo sapiens, UniProt P00918). The assay is described as follows: Stopped-flow CO2 hydrase assay, CA II.
The next assay addresses human CA I (Homo sapiens, UniProt P00915). In words: Stopped-flow CO2 hydrase assay, CA I.
Another assay deals with human CA IX (Homo sapiens, UniProt Q16790). In words: Stopped-flow CO2 hydrase assay, CA IX. The settings on record: for Selectivity Ratio I/IX: Ki CA I / Ki CA IX; for Selectivity Ratio II/IX: Ki CA II / Ki CA IX.
For another assay, the target named is human CA XII (Homo sapiens, UniProt O43570). In words: Stopped-flow CO2 hydrase assay, CA XII. The settings on record: for Selectivity Ratio I/XII: Ki CA I / Ki CA XII; for Selectivity Ratio II/XII: Ki CA II / Ki CA XII.
Assay [4] is described as follows: Metal complexation assay by UV-Vis spectroscopy. Type of assay: physicochemical. The settings on record: DMSO, 25 °C. On the procedure:
The ability of 5b, as a model compound, to complex metal cations associated with tumorigenesis (Na^+, K^+, Fe^2+, Fe^3+, Zn^2+, and Cu^2+) was analyzed using UV–Vis spectroscopy. To investigate this, UV–Vis spectra of solutions with varying ratios of 5b to metal chlorides (1:0, 4:1, 2:1, 1:1, 1:2, 1:5) were recorded. Additionally, a 1:2 ligand-to-metal spectrum was obtained after 72 h of incubation to account for potential slow complexation. […] For ZnCl2, only a weak effect was observed after incubation, and no significant changes were detected without incubation, regardless of the ligand-to-Zn^2+ ratio (Figure 6C).
The complexation of 5b with different metal chlorides (NaCl, KCl, FeCl2, FeCl3, ZnCl2, and CuCl2) was investigated using UV–Vis spectroscopy (Jasco V-360). The stock solutions of the salts (10^−2 M) and the ligand (2.5 mM) were prepared in pure DMSO and sonicated when necessary. To 20 µL of a 2.5 mM solution of 5b were added different aliquots of the metal chlorides solutions up to a total volume of 2 mL in quartz cuvettes. The following ligand–metal ratios were used: 1:0.25, 1:0.5, 1:1, 1:2, 1:5, and 1:10. The absorbance was monitored at 25 °C in the range 280–440 nm, either with or without incubation. A blank solution without 5b was also prepared for each concentration of the salt, and its spectrum was subtracted from the ligand–salt spectrum.

[5] abbreviates: read-out: GI50 in five out of six cell lines.
Where [6] appears, read: range over six tumor cell lines, read-out: GI50 range across all tested cell lines.

Here are results for six compounds from PMC11818225, “Multifaceted Sulfonamide-Derived Thiosemicarbazones: Combining Metal Chelation and Carbonic Anhydrases Inhibition in Anticancer Therapy” (International Journal of Molecular Sciences, 2025).

Each structure is given as a SMILES string. Entries after “also recorded” stand apart in the source; their conditions may differ. Like-named read-outs stand apart in the source and are kept apart here. Bounds are passed on as bounds.

Chain of human CA XII (O43570 25-354): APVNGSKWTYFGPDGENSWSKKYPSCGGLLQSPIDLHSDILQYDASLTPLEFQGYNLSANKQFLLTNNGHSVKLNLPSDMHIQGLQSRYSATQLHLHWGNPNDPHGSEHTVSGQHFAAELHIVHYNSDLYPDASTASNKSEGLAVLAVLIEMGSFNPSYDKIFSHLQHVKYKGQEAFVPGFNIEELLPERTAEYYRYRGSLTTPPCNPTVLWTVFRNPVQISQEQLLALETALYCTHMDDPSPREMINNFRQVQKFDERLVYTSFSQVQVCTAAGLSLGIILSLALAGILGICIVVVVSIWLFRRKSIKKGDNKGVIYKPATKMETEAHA
Chain of human CA I (P00915 whole entry): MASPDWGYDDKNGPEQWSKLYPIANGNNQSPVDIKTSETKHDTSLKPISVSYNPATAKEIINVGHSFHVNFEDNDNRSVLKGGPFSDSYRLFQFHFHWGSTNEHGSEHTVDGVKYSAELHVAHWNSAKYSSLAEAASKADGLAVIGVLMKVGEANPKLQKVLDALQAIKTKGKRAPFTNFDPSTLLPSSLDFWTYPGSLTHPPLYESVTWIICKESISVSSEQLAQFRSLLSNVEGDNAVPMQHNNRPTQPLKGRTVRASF

Usually GI50 stands for the concentration at which growth is held to half of that of the control. For `NS(=O)(=O)c1ccc(NC(=S)N/N=C/c2ccccn2)cc1` [Compound 5a, 1-(Pyridin-2′-ylmethylene)-4-(4″-sulfonamidophenyl)-3-thiosemicarbazone], the concentration for 50% growth inhibition (GI50) in the assay on HeLa (cervix) is 5.2 ± 0.3 µM; with HBL-100 (breast), 5.2 ± 2.2 µM; in assay [1] (setting [5]) it was below 10 µM; in [2] it was 4.2 ± 0.1 µM; in the assay with WiDr (colon), 3.8 ± 0.3 µM; in assay [3], 18 ± 2 µM. Growth in the assay with T-47D (breast) was halved (GI50) at 5.7 ± 2.1 µM.
Take `NS(=O)(=O)c1ccc(NC(=S)N/N=C/c2ccccc2)cc1` [Compound 4a, 1-Phenylmethylene-4-(4′-sulfonamidophenyl)-3-thiosemicarbazone]: the GI50 in the assay on HeLa (cervix) is 2.3 ± 0.2 µM; with HBL-100 (breast), 3 ± 1.6 µM; in assay [1] (setting [6]), 2.3 to 5.1 µM; in [2], 2.9 ± 1.4 µM; with WiDr (colon), 4.5 ± 1.4 µM; in assay [3], 5.1 ± 3.7 µM. Besides, in the assay with T-47D (breast), it took 2.6 ± 0.1 µM to inhibit growth by half (GI50). Besides, in the assay with SW1573 cells, the “Phenotypic effects on cancer cells” value is “cell division was retarded and apoptotic features were observed in some cells”.
As a reminder, the Ki is a dissociation constant, usually derived from enzyme kinetics or from competition with a known ligand. A low value points to higher affinity. For the compound `COc1ccc(/C=N/NC(=S)NCCc2ccc(S(N)(=O)=O)cc2)cc1` [Compound 4m, 1-(4′-Methoxyphenylmethylene)-4-[2″-(4‴-sulfonamido)phenyl]ethyl-3-thiosemicarbazone], the concentration for 50% growth inhibition (GI50) with HeLa (cervix) was above 100 µM; with HBL-100 (breast), above 100 µM; in assay [2] it was above 100 µM; with WiDr (colon), above 100 µM; in assay [3] it was 97 ± 4 µM; with T-47D (breast) it was above 100 µM. The Ki turned out to be 0.321 µM at human CA II, 3.48 µM at human CA I, 0.164 µM on human CA IX and 0.035 µM on human CA XII. Moreover, the “Selectivity Ratio I/IX” value at human CA IX came to 21.2. Also, the “Selectivity Ratio II/IX” value on human CA IX came to 2.0. The “Selectivity Ratio I/XII” value on human CA XII came to 99.4. Also, the “Selectivity Ratio II/XII” value on human CA XII is on record as 9.2.
Regarding `NNC(=S)NCCc1ccc(S(N)(=O)=O)cc1` [Compound 3c, 4-N-[2′-(4″-Sulfonamido)phenyl]ethyl-3-thiosemicarbazide], the concentration for 50% growth inhibition (GI50) (in the assay with HeLa (cervix); in the assay with HBL-100 (breast); in assay [2]; with WiDr (colon); in assay [3]; with T-47D (breast)) was above 100 µM each time. Moreover, the Ki is 0.00851 µM on human CA II, 0.079 µM at human CA I, 0.013 µM on human CA IX and 0.00502 µM at human CA XII. Also, the “Selectivity Ratio I/IX” value at human CA IX was 6.1. Besides, on human CA IX, the “Selectivity Ratio II/IX” value was determined as 0.65. The “Selectivity Ratio I/XII” value at human CA XII came out at 15.7. For the same compound, on human CA XII, the “Selectivity Ratio II/XII” value worked out at 1.7.
Take `NS(=O)(=O)c1cccc(NC(=S)N/N=C/c2ccccn2)c1` [Compound 5b, 1-(Pyridin-2′-ylmethylene)-4-(3″-sulfonamidophenyl)-3-thiosemicarbazone]: the GI50 is 5.8 ± 0.4 µM in the assay with HeLa (cervix); 7.8 ± 2 µM in the assay on HBL-100 (breast); 4.5 to 10 µM in assay [1] (setting [6]); below 10 µM in assay [1] (setting [5]); 7.1 ± 0.4 µM in assay [2]; 4.5 ± 0.6 µM in the assay with WiDr (colon). The concentration for 50% growth inhibition (GI50) in assay [3] came to 10 ± 2 µM; with T-47D (breast), 5.3 ± 0.7 µM. Further, the Ki was found to be 0.0025 µM at human CA II, 0.538 µM on human CA I, 0.0049 µM at human CA IX and 0.0056 µM at human CA XII. The “Chelation of Cu2+” value in [4] (CuCl2 titration) is given as “efficiently chelated; also recorded: efficient ligand for chelating; also recorded: effective chelation”. Also, the “Chelation of Fe2+” value in [4] (FeCl2 titration) is listed as “efficiently chelated; also recorded: to a lesser extent; also recorded: effective chelation”. Also, the “Chelation of Fe3+” value in [4] (FeCl3 titration) is “efficiently chelated; also recorded: to a lesser extent”. Moreover, in [4] (KCl titration), the “Chelation of K+” value is “does not chelate”. The “Chelation of Na+” value in assay [4] (NaCl titration) is “does not chelate”. The “Chelation of Zn2+” value in assay [4] (ZnCl2 titration) is reported as “notably weaker”. Further, at human CA IX, the “Selectivity Ratio I/IX” value came to 109.8. Besides, the “Selectivity Ratio II/IX” value at human CA IX turned out to be 0.49. In addition, the “Selectivity Ratio I/XII” value on human CA XII came out at 96.1. Also, the “Phenotypic effects on cancer cells” value with SW1573 cells is “cell division was retarded and apoptotic features were observed in some cells; also recorded: delayed tumor cell division and features indicative of apoptosis”.
In the case of `NS(=O)(=O)c1ccc(CCNC(=S)N/N=C/c2ccc(F)cc2)cc1` [Compound 4n, 1-(4′-Fluorophenylmethylene)-4-[2″-(4‴-sulfonamido)phenyl]ethyl-3-thiosemicarbazone], the GI50 (with HeLa (cervix); in the assay with HBL-100 (breast); in assay [2]; with WiDr (colon); in [3]; in the assay with T-47D (breast)) was above 100 µM in each case. The inhibition constant (Ki) at human CA II is 0.59 µM; on human CA I, 2.49 µM; at human CA IX, 0.3 µM; at human CA XII, 0.0485 µM. The “Selectivity Ratio I/IX” value on human CA IX is reported as 8.3. At human CA IX, the “Selectivity Ratio II/IX” value was found to be 2.0. Also, the “Selectivity Ratio I/XII” value at human CA XII came out at 51.2. For the same compound, on human CA XII, the “Selectivity Ratio II/XII” value stood at 12.2.
